According to ChEMBL document CHEMBL1142203, “Antiviral activities of novel 5-phosphono-pent-2-en-1-yl nucleosides and their alkoxyalkyl phosphonoesters” (Antimicrob Agents Chemother, 2007):

What was measured:
[1] = Cytotoxicity against Huh7 cells; format: cell-based, Huh-7; settings: human
Human gammaherpesvirus 4 = assay: Antiviral activity against EBV in Daudi cells by ELISA; format: functional, organism-based; settings: human gammaherpesvirus 4, Daudi
Hepatitis B virus [2] = assay: Antiviral activity against HBV with […]-resistant polymerase N236T mutant in Huh7 cells after 5 days; format: functional, organism-based; settings: Huh-7, 120 h
[3] = Cytotoxicity against HepG2 2.2.15 cells assessed as inhibition of uptake of neutral red dye after 24 hrs; format: cell-based; settings: human
Hepatitis B virus [4] = assay: Antiviral activity against wild type HBV in Huh7 cells after 5 days; format: functional, organism-based; settings: Huh-7, 120 h
Cowpox virus = assay: Antiviral activity against Cowpox virus Brighton in HFF cells by plaque reduction assay; format: functional, organism-based
Hepatitis B virus [5] = assay: Antiviral activity against HBV with lamivudine-resistant polymerase L180M/M204V double mutant in Huh7 cells after 5 days; format: functional, organism-based; settings: Huh-7, 120 h
Vaccinia virus = assay: Antiviral activity against Vaccinia virus Copenhagen in HFF cells by plaque reduction assay; format: functional, organism-based; settings: Orthopoxvirus vaccinia
Hepatitis B virus [6] = assay: Antiviral activity against HBV with lamivudine-resistant polymerase L180M mutant in Huh7 cells after 5 days; format: functional, organism-based; settings: Huh-7, 120 h
Hepatitis B virus [7] = assay: Antiviral activity against HBV in HepG2 2.2.15 cells after 24 hrs by DNA reduction assay; format: functional, organism-based; settings: HepG2, 24 h
Human alphaherpesvirus 1 = assay: Antiviral activity against HSV1 in MRC5 cells by DNA reduction assay; format: functional, organism-based; settings: Human alphaherpesvirus 1, MRC5
Hepatitis B virus [8] = assay: Antiviral activity against HBV with lamivudine-resistant polymerase M204V mutant in Huh7 cells after 5 days; format: functional, organism-based; settings: Huh-7, 120 h
Human betaherpesvirus 5 = assay: Antiviral activity against HCMV AD169 in HFF cells by plaque reduction assay; format: functional, organism-based; settings: Human betaherpesvirus 5, AD169, HFF
[9] = Cytotoxicity against HFF cells by neutral red uptake assay; format: cell-based; settings: human
[10] = Selectivity index, ratio of CC50 for HepG2 2.2.15 cells to EC50 for HBV; format: functional
Hepatitis B virus [11] = assay: Antiviral activity against HBV with lamivudine-resistant polymerase M204I mutant in Huh7 cells after 5 days; format: functional, organism-based; settings: Huh-7, 120 h
Human alphaherpesvirus 3 = assay: Antiviral activity against VZV Ellen in HFF cell by CPE assay; format: functional, organism-based; settings: Human alphaherpesvirus 3, Ellen
[12] = Cytotoxicity against plated MRC5 cells by neutral red uptake assay; format: cell-based; settings: human
[13] = Cytotoxicity against Daudi cells; format: cell-based; settings: human
[14] = Cytotoxicity against MT2 cells after 72 hrs; format: cell-based; settings: human
[15] = system: Human immunodeficiency virus 1; assay: Antiviral activity against HIV1 LAI in MT2 cells assessed as inhibition of p24 antigen production; format: functional, organism-based; settings: Human immunodeficiency virus 1, LAI

| Compound | CC50 [1] [µM] | EC50 (Human gammaherpesvirus 4) [µM] | EC50 (Hepatitis B virus [2]) [µM] | CC50 at 24 h [3] [µM] | EC50 (Hepatitis B virus [4]) [µM] | EC50 (Cowpox virus) [µM] | EC50 (Hepatitis B virus [5]) [µM] | EC50 (Vaccinia virus) [µM] | EC50 (Hepatitis B virus [6]) [µM] | EC50 (Hepatitis B virus [7]) [µM] | EC50 (Human alphaherpesvirus 1) [µM] | EC50 (Hepatitis B virus [8]) [µM] | EC50 (Human betaherpesvirus 5) [µM] | CC50 [9] [µM] | Ratio CC50/EC50 [10] | EC50 (Hepatitis B virus [11]) [µM] | EC50 (Human alphaherpesvirus 3) [µM] | CC50 [12] [µM] | further results |
| --- | --- | --- | --- | --- | --- | --- | --- | --- | --- | --- | --- | --- | --- | --- | --- | --- | --- | --- | --- |
| CCCCCCCCCCCCCCCCOCCCOP(=O)(O)CC/C=C\Cn1cnc2c(=O)nc(N)[nH]c21 | 929 | 48 | 6.3 | > 1000 | 8.8 | 11 | > 100 | 7.5 | > 100 | 2.4 | 5.8 | 16 | 1.8 | > 100 | >417 | 13 | 12.2 |  |  |
| Nc1ncnc2c1ncn2C/C=C\CCP(=O)(O)O |  | > 4 |  | 639 |  | > 100 |  | > 100 |  | > 30 | > 30 |  | > 100 | > 100 |  |  | > 300 | > 100 |  |
| Cc1cn(C/C=C\CCP(=O)(O)O)c(=O)[nH]c1=O |  |  |  | 620 |  | > 100 |  | > 100 |  | > 30 | > 30 |  | > 100 | > 100 |  |  | > 300 | > 100 |  |
| CCCCCCCCCCCCCCCCOCCCOP(=O)(O)CC/C=C\Cn1cnc2c(N)ncnc21 | 110 | 0.1 | 10 | 116 | 9.2 | > 20 | 8.1 | > 30 | 15 | 1.5 | 18 | 9 | 15.7 | 43 | 77 | 7.7 | > 20 |  | CC50 [13]: > 100 µM |
| Nc1ccn(C/C=C\CCP(=O)(O)O)c(=O)n1 |  |  |  | 600 |  | > 100 |  | > 100 |  | > 30 | > 30 |  | > 100 | > 100 |  |  | > 60 | > 100 |  |
| CCCCCCCCCCCCCCCCOCCCOP(=O)(O)CC/C=C\Cn1ccc(=O)[nH]c1=O |  |  |  | 155 |  | > 100 |  | > 100 |  | > 30 | > 30 |  | > 20 | > 100 |  |  |  |  |  |
| Nc1nc(=O)c2ncn(C/C=C\CCP(=O)(O)O)c2[nH]1 |  |  |  | 610 |  | > 100 |  | > 100 |  | > 30 | > 30 |  | 68.4 | > 100 |  |  | 7.2 | > 100 |  |
| CCCCCCCCCCCCCCCCOCCCOP(=O)(O)CC/C=C\Cn1ccc(N)nc1=O | 523 |  | 4 | 621 | 3.4 | > 20 | > 100 | > 20 | > 100 | 3.9 | 4.7 | > 100 | 2.9 | 56 | 159 | > 100 | 3.7 |  | CC50 at 72 h [14]: 3.3 µM; EC50 [15]: 2.5 µM |
| CCCCCCCCCCCCCCCCOCCCOP(=O)(O)CC/C=C\Cn1cc(C)c(=O)[nH]c1=O | 120 |  | 3.8 | 122 | 3 | > 20 | > 100 | > 20 | > 100 | 2 | 0.9 | > 100 | 0.66 | > 100 | 61 | > 100 | 3 |  | CC50 at 72 h [14]: 1.3 µM; EC50 [15]: 1 µM |
| O=c1nc(O)ccn1C/C=C\CCP(=O)(O)O |  |  |  | 712 |  | > 100 |  | > 100 |  | > 30 | > 30 |  | > 100 | > 100 |  |  | > 300 | > 100 |  |
